Reference: patent US11384060B2, “Amide compounds and use thereof” (ALPHALA CO., LTD., priority 2017, dated 2022)
Where two headings read alike, the source gives them in different places.

Assays:
glucagon receptor (GCGR) = biological target: T1, glucagon receptor (GCGR) (Homo sapiens, UniProt P47871); experiment: I125-glucagon binding assay (competition, GCGR membrane fractions)
T1 construct: expressed in transfected cells; host or cells: CHO-K1 cells overexpressing GCGR (membrane fractions)
How it was run: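 Competition of 0.0625 nM (final) I^125-glucagon for 30 min at 25° C, after 5 min compound preincubation, using 7.5 μg/well GCGR-overexpressing CHO-K1 membranes in 50 mM Tris pH 7.4, 0.5% BSA. Filtration onto PEI-coated GF/B, micro-beta counting, and non-linear regression gave IC50.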

[1] = biological target: T2, glucagon receptor (GCGR) overexpressed CHO-K1 cells or human primary hepatocytes (Homo sapiens, UniProt P47871); experiment: Glucagon cAMP inhibition assay (Cisbio cAMP Dynamic 2 HTRF); assay type: cell-based
T2 construct: expressed in transfected cells; host or cells: GCGR overexpressed CHO-K1 cells or human primary hepatocytes (endogenous receptor)
T2 sequence (P47871 26-477): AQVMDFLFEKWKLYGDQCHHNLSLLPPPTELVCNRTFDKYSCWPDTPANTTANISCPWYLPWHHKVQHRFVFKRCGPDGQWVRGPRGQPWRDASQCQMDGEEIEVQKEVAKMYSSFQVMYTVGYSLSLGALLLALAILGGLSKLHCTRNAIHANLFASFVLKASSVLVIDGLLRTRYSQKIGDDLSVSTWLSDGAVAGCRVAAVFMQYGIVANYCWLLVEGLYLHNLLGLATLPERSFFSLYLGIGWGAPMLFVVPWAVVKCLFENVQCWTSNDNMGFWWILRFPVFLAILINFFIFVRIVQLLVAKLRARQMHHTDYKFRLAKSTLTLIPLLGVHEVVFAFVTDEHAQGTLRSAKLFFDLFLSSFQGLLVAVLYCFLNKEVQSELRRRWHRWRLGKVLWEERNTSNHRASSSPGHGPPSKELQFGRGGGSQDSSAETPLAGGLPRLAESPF
How it was run: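 HTRF read-out of glucagon-induced cAMP, with IC50 from non-linear regression. Cells (GCGR CHO-K1 or human primary hepatocytes) in HBSS/0.1% BSA/800 nM IBMX took compound dilutions for 30 min (final DMSO 1%), then EC50-level glucagon for 30 min at room temperature, then a 60 min lysis/detection step.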

[2] = competition with I125-glucagon 0.0625 nM, membrane fractions of GCGR overexpressed CHO-K1 cells
[3] = inhibition of glucagon (EC50 concentration) induced cAMP production

T1 sequence (P47871 26-477): as above

| Compound | IC50 (glucagon receptor (GCGR)) [µM] | IC50 cAMP [1] [nM] | IC50 (glucagon receptor (GCGR); [2]) [µM] | IC50 cAMP [1, 3] [nM] | further results |
| --- | --- | --- | --- | --- | --- |
| CC(C)COC[C@@H](Cc1ccc(-c2ccc(C(C)(C)C)cc2)cc1)Nc1ccc(C(=O)NCCC(=O)O)cc1 [Compound 19-17, (R)-3-(4-((1-(4′-(tert-butyl)-[1,1′-biphenyl]-4-yl)-3-isobutoxypropan-2-yl)amino)benzamido)propanoic Acid] | 1.04 | 1225 | – | – | – |
| CCCC[C@@H](COc1ccc(-c2nnc(C(F)(F)F)o2)c(F)c1)Nc1ccc(C(=O)NCCC(=O)O)cc1 [Compound 8-24, (S)-3-(4-((1-(3-fluoro-4-(5-(trifluoromethyl)-1,3,4-oxadiazol-2-yl)phenoxy)hexan-2-yl)amino)benzamido)propanoic Acid] | – | – | 0.366 | 2701 | – |
| CCCC[C@@H](COc1ccc(-c2ccc(C(F)(F)F)cc2F)c(OC)c1)Nc1ccc(C(=O)NCCC(=O)O)cc1 [Compound 13-14, (S)-3-(4-((1-((2′-fluoro-2-methoxy-4′-(trifluoromethyl)-[1,1′-biphenyl]-4-yl)oxy)hexan-2-yl)amino)benzamido)propanoic Acid] | – | – | 0.015 | 66 | – |
| CCCC[C@@H](COc1ccc(-c2ccc(C(F)(F)F)cc2F)c(OC)c1)Nc1ccc(C(=O)NCCC(=O)O)cn1 [Compound 14-2, (S)-3-(6-((1-((2′-fluoro-2-methoxy-4′-(trifluoromethyl)-[1,1′-biphenyl]-4-yl)oxy)hexan-2-yl)amino)nicotinamido)propanoic Acid] | – | – | 0.074 | 508 | – |
| Cc1cc(OC[C@H](CC(C)C)Nc2ccc(C(=O)NCCC(=O)O)cc2)cc(C)c1-c1ccc(OC(F)(F)F)cc1 [Compound 2-3, (S)-3-(4-((1-((2,6-dimethyl-4′-(trifluoromethoxy)-[1,1′-biphenyl]-4-yl)oxy)-4-methylpentan-2-yl)amino)benzamido)propanoic Acid] | – | – | 0.465 | 493 | – |
| CC(C)[C@@H](COc1ccc(-c2cc3ccccc3o2)nc1)Nc1ccc(C(=O)NCCC(=O)O)cc1 [Compound 10-6, (S)-3-(4-((1-((6-(benzofuran-2-yl)pyridin-3-yl)oxy)-3-methylbutan-2-yl)amino)benzamido)propanoic Acid] | – | – | 0.252 | 2650 | – |
| CCOC(=O)CCNC(=O)c1ccc(N[C@H](COc2ccc(-c3nc4ccccc4o3)cc2)C(C)C)cc1 [Compound 1-47, Ethyl (S)-3-(4-((1-(4-(benzo[d]oxazol-2-yl)phenoxy)-3-methylbutan-2-yl)amino)benzamido)propanoate] | – | – | > 30 | 170 | inhibition at 30 µM (glucagon receptor (GCGR); compound at the concentration of 30 μM, read-out: percentage of inhibition (binding)): 56% |
| CC(C)COC[C@H](Cc1ccc(-c2ccccc2C(F)(F)F)cc1)Nc1ccc(C(=O)NCCC(=O)O)cc1 [Compound 19-29, (S)-3-(4-((1-isobutoxy-3-(2′-(trifluoromethyl)-[1,1′-biphenyl]-4-yl)propan-2-yl)amino)benzamido)propanoic Acid] | 2.12 | 871 | – | – | – |
| CC(C)[C@@H](COc1ccc(-c2ccc(C(F)(F)F)cc2F)cc1)Nc1ccc(C(=O)NCCS(=O)(=O)O)cc1 [Compound 1-33, (S)-2-(4-((1-((2′-fluoro-4′-(trifluoromethyl)-[1,1′-biphenyl]-4-yl)oxy)-3-methylbutan-2-yl)amino)benzamido)ethane-1-sulfonic Acid] | – | – | 1.9 | 3767 | – |
| CC[C@H](C)[C@@H](COc1ccc(-c2ccc(C(F)(F)F)cc2)c(F)c1)Nc1ccc(C(=O)NCCC(=O)O)cc1 [Compound 8-14, 3-(4-(((2S,3S)-1-((2-fluoro-4′-(trifluoromethyl)-[1,1′-biphenyl]-4-yl)oxy)-3-methylpentan-2-yl)amino)benzamido)propanoic Acid] | – | – | 0.251 | 250 | – |
| CCC(C)[C@@H](COc1ccc(-c2nnc(C(F)(F)F)o2)cc1)Nc1ccc(C(=O)NCCC(=O)O)cc1 (stereo partly drawn) [Compound 1-44, 3-(4-((3-methyl-1-(4-(5-(trifluoromethyl)-1,3,4-oxadiazol-2-yl)phenoxy)pentan-2-yl)amino)benzamido)propanoic Acid] | – | – | 0.388 | 10000 | – |
| CC(C)C[C@@H](COc1cc(F)c(-c2ccc(C(F)(F)F)cc2)c(F)c1)Nc1ccc(C(=O)NCCC(=O)O)cn1 [Compound 9-4, (S)-3-(6-((1-((2,6-difluoro-4′-(trifluoromethyl)-[1,1′-biphenyl]-4-yl)oxy)-4-methylpentan-2-yl)amino)nicotinamido)propanoic Acid] | – | – | 1.67 | 2300 | – |
| CC(C)COC[C@H](Cc1ccc(-c2cccc(OC(F)(F)F)c2)cc1)Nc1ccc(C(=O)NCCC(=O)O)cc1 [Compound 19-30, (S)-3-(4-((1-isobutoxy-3-(3′-(trifluoromethoxy)-[1,1′-biphenyl]-4-yl)propan-2-yl)amino)benzamido)propanoic Acid] | 0.548 | 1104 | – | – | – |
| CC(C)(C)[C@@H](COc1ccc(-c2cc3ccccc3o2)c(Cl)c1)Nc1ccc(C(=O)NCCC(=O)O)cc1 [Compound 3-23, (S)-3-(4-((1-(4-(benzofuran-2-yl)-3-chlorophenoxy)-3,3-dimethylbutan-2-yl)amino)benzamido)propanoic Acid] | – | – | 0.156 | 293 | – |
| CC(C)[C@@H](COc1ccc(-c2nc3ccccc3s2)c(F)c1)Nc1ccc(C(=O)NCCC(=O)O)cc1 [Compound 8-25, (S)-3-(4-((1-(4-(benzo[d]thiazol-2-yl)-3-fluorophenoxy)-3-methylbutan-2-yl)amino)benzamido)propanoic Acid] | – | – | 0.095 | 653 | – |
| CC(C)C[C@@H](COc1ccc(-c2ccc(C(F)(F)F)cc2)nc1)Nc1ccc(C(=O)NCCC(=O)O)cc1 [Compound 10-17, (S)-3-(4-((4-methyl-1-((6-(4-(trifluoromethyl)phenyl)pyridin-3-yl)oxy)pentan-2-yl)amino)benzamido)propanoic Acid] | – | – | 0.542 | 847 | – |
| CC(C)[C@@H](COc1ccc(-c2cc3ccccc3o2)c(Cl)c1)Nc1ccc(C(=O)NCCC(=O)O)cc1 [Compound 3-7, (S)-3-(4-((1-(4-(benzofuran-2-yl)-3-chlorophenoxy)-3-methylbutan-2-yl)amino)benzamido)propanoic Acid] | – | – | 0.103 | 363.5 | – |

The next lines start with results.

| IC50 (glucagon receptor (GCGR)) [µM] | IC50 cAMP [1] [nM] | IC50 (glucagon receptor (GCGR); [2]) [µM] | IC50 cAMP [1, 3] [nM] | Compound | further results |
| --- | --- | --- | --- | --- | --- |
| 0.074 | 80 | – | – | Cc1nc(OC[C@H](CC(C)C)Nc2ccc(C(=O)NCCC(=O)O)cc2)ccc1-c1ccc(C(F)(F)F)cc1Cl [Compound 18-7, (S)-3-(4-((1-((5-(2-chloro-4-(trifluoromethyl)phenyl)-6-methylpyridin-2-)oxy)-4-methylpentan-2-yl)amino)benzamido)propanoic Acid] | – |
| > 30 | >30000 | – | – | CC(C)[C@@H](COc1nnc(-c2ccc(C(C)(C)C)cc2)o1)Nc1ccc(C(=O)NCCC(=O)O)cc1 [Compound 22-16, (S)-3-(4-((1-((5-(4-(tert-butyl)phenyl)-1,3,4-oxadiazol-2-yl)oxy)-3-methylbutan-2-yl)amino)benzamido)propanoic Acid] | – |
| 0.163 | 1082 | – | – | CC(C)C[C@H](Cc1ccc(-c2cc3ccccc3o2)cc1)Nc1ccc(C(=O)NCCC(=O)O)cc1 [Compound 19-5, (R)-3-(4-((1-(4-(benzofuran-2-yl)phenyl)-4-methylpentan-2-yl)amino)benzamido)propanoic Acid] | – |
| 0.151 | 809 | – | – | CC(C)(C)c1nnc(-c2ccc(OC[C@@H](Nc3ccc(C(=O)NCCC(=O)O)cc3)c3ccc(-c4ccc(C(F)(F)F)cc4F)cc3)nc2)o1 [Compound 15-32, (S)-3-(4-((2-((5-(5-(tert-butyl)-1,3,4-oxadiazol-2-yl)pyridin-2-yl)oxy)-1-(2′-fluoro-4′-(trifluoromethyl)-[1,1′-biphenyl]-4-yl)ethyl)amino)benzamido)propanoic Acid] | – |
| 1.43 | >30000 | – | – | CCCC[C@@H](COc1nnc(-c2ccc(OC(F)(F)F)cc2)o1)Nc1ccc(C(=O)NCCC(=O)O)cc1 [Compound 22-2, (S)-3-(4-((1-((5-(4-(trifluoromethoxy)phenyl)-1,3,4-oxadiazol-2-yl)oxy)hexan-2-yl)amino)benzamido)propanoic Acid] | – |
| > 30 | >30000 | – | – | CCCC[C@@H](COc1nnc(-c2ccc(C(F)(F)F)cc2)o1)Nc1ccc(C(=O)NCCC(=O)O)cc1 [Compound 22-5, (S)-3-(4-((1-((5-(4-(trifluoromethyl)phenyl)-1,3,4-oxadiazol-2-yl)oxy)hexan-2-yl)amino)benzamido)propanoic Acid] | – |
| – | 1059 | – | – | CCOC(=O)CCNC(=O)c1ccc(N[C@H](CC(C)C)C(=O)Nc2ccc(C(F)(F)F)cc2)cc1 [Compound 24-9, Ethyl (R)-3-(4-((4-methyl-1-oxo-1-((4-(trifluoromethyl)phenyl)amino)pentan-2-yl)amino)benzamido)propanoate] | IC50 (glucagon receptor (GCGR); uM): > 10 µM |
| 0.239 | 1510 | – | – | O=C(O)CCNC(=O)c1ccc(N[C@H](Cc2ccc(-c3ccc(Cl)cc3Cl)cc2)C(=O)Nc2ccc(C(F)(F)F)cc2)cc1 [Compound 24-18, (R)-3-(4-((3-(2′,4′-dichloro-[1,1′-biphenyl]-4-yl)-1-oxo-1-((4-(trifluoromethyl)phenyl)amino)propan-2-yl)amino)benzamido)propanoic Acid] | – |
